# Laboratory results from ChEMBL document CHEMBL4622904, “The discovery of azetidine-piperazine di-amides as potent, selective and reversible monoacylglycerol lipase (MAGL) inhibitors” (Bioorg Med Chem Lett, 2020).
# What was measured:
# [1] = target: Plasma kallikrein (Homo sapiens) (UniProt P03952); test: Inhibition of kallikrein (unknown origin) at 10 uM relative to control
# [2] = target: Prothrombin (Homo sapiens) (UniProt P00734); test: Inhibition of thrombin (unknown origin) at 10 uM relative to control
# [3] = target: T1, Chymase (Homo sapiens) (UniProt P23946); test: Inhibition of chymase (unknown origin) at 10 uM relative to control
# T1 sequence (whole entry): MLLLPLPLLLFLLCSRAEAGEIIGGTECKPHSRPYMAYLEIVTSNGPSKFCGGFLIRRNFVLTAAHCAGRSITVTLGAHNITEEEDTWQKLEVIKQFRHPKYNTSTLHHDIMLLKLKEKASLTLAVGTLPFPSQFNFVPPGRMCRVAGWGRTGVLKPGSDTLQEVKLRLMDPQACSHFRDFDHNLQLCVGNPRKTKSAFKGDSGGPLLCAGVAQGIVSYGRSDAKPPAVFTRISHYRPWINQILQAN
# [4] = target: T2, Cathepsin G (Homo sapiens) (UniProt P08311); test: Inhibition of cathepsin G (unknown origin) at 10 uM relative to control
# T2 sequence (whole entry): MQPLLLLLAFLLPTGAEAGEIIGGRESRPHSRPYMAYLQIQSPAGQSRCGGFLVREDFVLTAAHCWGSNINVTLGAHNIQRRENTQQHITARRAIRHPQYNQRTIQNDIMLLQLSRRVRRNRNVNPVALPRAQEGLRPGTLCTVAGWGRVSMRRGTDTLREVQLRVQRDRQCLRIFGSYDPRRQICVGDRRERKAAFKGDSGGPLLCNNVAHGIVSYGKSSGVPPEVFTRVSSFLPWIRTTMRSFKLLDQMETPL
# [5] = target: T3, Myeloblastin (Homo sapiens) (UniProt P24158); test: Inhibition of proteinase 3 (unknown origin) at 10 uM relative to control
# T3 sequence (whole entry): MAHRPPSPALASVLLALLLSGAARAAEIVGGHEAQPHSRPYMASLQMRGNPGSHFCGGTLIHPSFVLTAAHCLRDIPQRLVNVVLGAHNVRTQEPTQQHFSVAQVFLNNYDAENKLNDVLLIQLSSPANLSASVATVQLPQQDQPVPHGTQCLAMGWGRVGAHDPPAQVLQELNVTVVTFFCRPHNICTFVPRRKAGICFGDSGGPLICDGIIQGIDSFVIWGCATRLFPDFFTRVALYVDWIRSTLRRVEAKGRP
# [6] = target: T4, Coagulation factor VII (Homo sapiens) (UniProt P08709); test: Inhibition of factor 7a (unknown origin) at 10 uM relative to control
# T4 sequence (whole entry): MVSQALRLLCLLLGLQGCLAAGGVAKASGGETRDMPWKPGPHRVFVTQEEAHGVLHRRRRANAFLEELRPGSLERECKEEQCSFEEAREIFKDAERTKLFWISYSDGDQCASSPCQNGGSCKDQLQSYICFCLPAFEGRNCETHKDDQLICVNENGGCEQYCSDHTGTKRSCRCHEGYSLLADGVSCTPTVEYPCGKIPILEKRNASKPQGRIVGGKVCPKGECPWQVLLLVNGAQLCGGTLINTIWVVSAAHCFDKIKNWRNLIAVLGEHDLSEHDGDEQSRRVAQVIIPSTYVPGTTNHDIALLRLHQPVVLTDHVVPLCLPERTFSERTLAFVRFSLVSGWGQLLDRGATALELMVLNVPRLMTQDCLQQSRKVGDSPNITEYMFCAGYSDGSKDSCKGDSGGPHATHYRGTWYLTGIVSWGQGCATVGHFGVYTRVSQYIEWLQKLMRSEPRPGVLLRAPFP
# [7] = target: Urokinase-type plasminogen activator (Homo sapiens) (UniProt P00749); test: Inhibition of urokinase (unknown origin) at 10 uM relative to control
# [8] = test system: Bacteria; test: Inhibition of bacterial streptokinase at 10 uM relative to control
# [9] = target: Trypsin (Homo sapiens) (UniProt P07477+P07478+P35030); test: Inhibition of trypsin (unknown origin) at 10 uM relative to control; type: protein assay
# [10] = target: Coagulation factor X (Homo sapiens) (UniProt P00742); test: Inhibition of factor 10a (unknown origin) at 10 uM relative to control
# Sequence of Coagulation factor X (Homo sapiens) (P00742 41-179 limits assumed): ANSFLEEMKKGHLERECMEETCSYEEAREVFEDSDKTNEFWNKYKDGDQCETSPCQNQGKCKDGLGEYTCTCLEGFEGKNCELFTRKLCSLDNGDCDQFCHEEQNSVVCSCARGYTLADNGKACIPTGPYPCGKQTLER
# Sequence of Coagulation factor X (Homo sapiens) (P00742 235-488 limits assumed): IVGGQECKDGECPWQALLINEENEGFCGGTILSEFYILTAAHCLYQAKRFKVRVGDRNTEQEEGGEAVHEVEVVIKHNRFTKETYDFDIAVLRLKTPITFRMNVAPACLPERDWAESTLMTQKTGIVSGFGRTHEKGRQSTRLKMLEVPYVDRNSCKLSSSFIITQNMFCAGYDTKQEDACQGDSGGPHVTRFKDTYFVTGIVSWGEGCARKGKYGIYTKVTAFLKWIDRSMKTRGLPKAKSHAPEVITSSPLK
# [11] = AUClast in rat at 10 mg/kg, po; type: ADME, organism-based; parameters: dose 10 mg/kg, route oral, time 0 - last; conditions: in vivo
# [12] = Half life in rat at 10 mg/kg, po; type: ADME, organism-based; conditions: in vivo
# [13] = Clearance in rat at 10 mg/kg, po; type: ADME, organism-based; conditions: in vivo
# [14] = Volume of distribution at steady state in rat at 10 mg/kg, po; type: ADME, organism-based; conditions: in vivo
# [15] = Oral bioavailability in dog at 10 mg/kg; type: ADME, organism-based, Canis lupus familiaris; conditions: in vivo
# [16] = Tmax in dog at 10 mg/kg, po; type: ADME, organism-based, Canis lupus familiaris; conditions: in vivo
# [17] = Cmax in dog at 10 mg/kg, po; type: ADME, organism-based, Canis lupus familiaris; parameters: dose 10 mg/kg, route oral; conditions: in vivo
# [18] = AUClast in dog at 10 mg/kg, po; type: ADME, organism-based, Canis lupus familiaris; parameters: dose 10 mg/kg, route oral, time 0 - last; conditions: in vivo
# [19] = Half life in dog at 10 mg/kg, po; type: ADME, organism-based, Canis lupus familiaris; conditions: in vivo
# [20] = Clearance in dog at 10 mg/kg, po; type: ADME, organism-based, Canis lupus familiaris; conditions: in vivo
# [21] = Volume of distribution at steady state in dog at 10 mg/kg, po; type: ADME, organism-based, Canis lupus familiaris; conditions: in vivo
# [22] = Oral bioavailability in monkey at 10 mg/kg; type: ADME, organism-based, Macaca mulatta; conditions: rhesus monkey, in vivo
# [23] = Tmax in monkey at 10 mg/kg, po; type: ADME, organism-based, Macaca mulatta; conditions: rhesus monkey, in vivo
# [24] = Cmax in monkey at 10 mg/kg, po; type: ADME, organism-based, Macaca mulatta; parameters: dose 10 mg/kg, route oral; conditions: rhesus monkey, in vivo
# [25] = AUClast in monkey at 10 mg/kg, po; type: ADME, organism-based, Macaca mulatta; parameters: dose 10 mg/kg, time 0 - last, route oral; conditions: rhesus monkey, in vivo
# [26] = Half life in monkey at 10 mg/kg, po; type: ADME, organism-based, Macaca mulatta; conditions: rhesus monkey, in vivo
# [27] = Clearance in monkey at 10 mg/kg, po; type: ADME, organism-based, Macaca mulatta; conditions: rhesus monkey, in vivo
# [28] = Volume of distribution at steady state in monkey at 10 mg/kg, po; type: ADME, organism-based, Macaca mulatta; conditions: rhesus monkey, in vivo
# Sequence of Plasma kallikrein (Homo sapiens) (P03952 20-390 limits assumed): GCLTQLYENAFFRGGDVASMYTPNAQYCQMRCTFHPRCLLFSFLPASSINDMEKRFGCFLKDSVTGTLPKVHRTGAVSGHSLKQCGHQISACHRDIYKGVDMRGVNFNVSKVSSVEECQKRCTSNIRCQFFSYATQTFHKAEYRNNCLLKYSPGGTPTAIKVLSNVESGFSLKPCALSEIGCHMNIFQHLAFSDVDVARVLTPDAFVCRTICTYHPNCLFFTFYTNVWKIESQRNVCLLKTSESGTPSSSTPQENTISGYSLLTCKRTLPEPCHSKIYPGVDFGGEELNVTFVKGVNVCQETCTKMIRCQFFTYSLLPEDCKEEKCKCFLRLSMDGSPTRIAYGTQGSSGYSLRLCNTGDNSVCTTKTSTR
# Sequence of Plasma kallikrein (Homo sapiens) (P03952 391-638 limits assumed): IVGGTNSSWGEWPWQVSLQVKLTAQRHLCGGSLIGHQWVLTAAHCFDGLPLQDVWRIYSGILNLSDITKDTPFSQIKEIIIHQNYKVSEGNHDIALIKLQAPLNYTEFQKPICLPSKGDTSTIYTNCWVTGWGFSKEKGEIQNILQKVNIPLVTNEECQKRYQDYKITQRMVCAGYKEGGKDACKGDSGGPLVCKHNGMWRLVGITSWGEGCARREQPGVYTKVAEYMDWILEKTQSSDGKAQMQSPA
structure (smiles),measurement,setting,value
O=C(c1ccc2c(ccn2-c2ccc(F)cc2)c1)N1CC(N2CCN(C(=O)c3nccs3)CC2)C1,inhibition,[1],4%
same,inhibition,[2],-1%
same,inhibition,[3],11%
same,inhibition,[4],13%
same,inhibition,[5],7%
same,inhibition,[6],-5%
same,inhibition,[7],2%
same,inhibition,[8],1%
same,inhibition,[9],-10%
same,inhibition,[10],0%
same,AUC(0-t),[11],3730 ng·h/mL
same,half-life,[12],6.82 h
same,CL/F,[13],19.2 mL/min/kg
same,Vdss,[14],1.22 L/kg
same,bioavailability,[15],79%
same,Tmax,[16],2 h
same,Cmax,[17],2860 ng/mL
same,AUC(0-t),[18],33600 ng·h/mL
same,half-life,[19],7.46 h
same,CL/F,[20],4.35 mL/min/kg
same,Vdss,[21],0.56 L/kg
same,bioavailability,[22],82%
same,Tmax,[23],2.67 h
same,Cmax,[24],5300 ng/mL
same,AUC(0-t),[25],33500 ng·h/mL
same,half-life,[26],4.62 h
same,CL/F,[27],4.46 mL/min/kg
same,Vdss,[28],0.429 L/kg
